{"source": "patent US10544126B2", "about": "“Sulfonyl piperidine derivatives and their use for treating prokineticin mediated diseases” (TAKEDA PHARMACEUTICAL COMPANY LIMITED, priority 2012, dated 2020)", "molecular_target": "human PKR1 receptors (Homo sapiens (Human), UniProt Q8TCW9)", "sequence (Q8TCW9 whole entry)": "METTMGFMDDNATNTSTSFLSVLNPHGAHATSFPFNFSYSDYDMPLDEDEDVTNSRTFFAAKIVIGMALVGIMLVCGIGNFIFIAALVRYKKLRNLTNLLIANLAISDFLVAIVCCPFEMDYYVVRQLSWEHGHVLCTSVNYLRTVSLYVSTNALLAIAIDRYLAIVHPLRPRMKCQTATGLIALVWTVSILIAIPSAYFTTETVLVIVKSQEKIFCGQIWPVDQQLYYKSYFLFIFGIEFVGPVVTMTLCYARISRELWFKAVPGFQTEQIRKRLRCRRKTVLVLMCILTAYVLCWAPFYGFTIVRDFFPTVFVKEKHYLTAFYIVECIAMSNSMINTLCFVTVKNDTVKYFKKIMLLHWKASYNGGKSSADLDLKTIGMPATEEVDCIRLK", "test": "PKR1 antagonist assay: block of PK1-mediated intracellular calcium release (FLIPR)", "assay_type": "cell-based", "details": "antagonist activity; RBL2H3 cells expressing human PKR1; stimulation with PK1 at EC80; calcium fluorescence", "protocol": "Prokineticin receptor 1 (PKR1) antagonists may be functionally assessed by measurement of change in intracellular calcium levels induced by Gq mediated increase in inositol triphosphate (IP3) levels. The ability of a compound to block the intracellular release of calcium mediated by PK1 in RBL2H3 cells expressing human PKR1 receptors is determined as a measure of the compound's antagonist activity in vitro.\nApproximately 10,000 cells per assay well are seeded in normal culture medium in a 384 well plate (Corning). […]\nTo test for antagonist activity, test compounds at a final concentration range between 0.32 nM-10 μM (diluted in assay buffer) are added to the assay wells and allowed to incubate for 10 minutes prior to stimulation with PK1. After incubation with test compounds the assay plate is placed in a FLIPR Tetra (Molecular Devices) and PK1 (diluted in assay buffer) is added at the determined EC80 concentration (final). Ligand-dependent changes in intracellular calcium levels are determined by measuring changes in fluorescence of the dye at […] following excitation at 485 nm.", "note": "pIC50: −log10 of the molar value."}
{"smiles": "Cc1n[nH]c(C)c1S(=O)(=O)N1CCC(C(C#N)c2ccc(Cl)cc2F)CC1", "note": "(stereo not shown) [Example 92, 2-(4-Chloro-2-fluorophenyl)-2-(1-((3,5-dimethyl-1H-pyrazol-4-yl)sulfonyl)piperidin-4-yl)acetonitrile]", "values": [{"measurement": "pIC50", "result": 5.73}]}
